# Tested on: patients after acute myocardial infarction
# Assay: TCM symptom score, total and single (chest pain, chest tightness, short breath, fatigue, palpitation, spontaneous perspiration, pale complexion), same clinical trial
# Type: in vivo, human
# Design: total score of TCM symptom, Mean / total score of TCM symptom, Min / total score of TCM symptom, Max / total score of TCM symptom, Md / change of total score of TCM symptom, Mean / change of total score of TCM symptom, Max / change of total score of TCM symptom, Md: scale not given here
# Conditions: FAS
# Source text: 3508 patients who were in accordance with the diagnostic standards of AMI for 28 days to 2 years and differentiated as Qi deficiency and blood stagnation syndrome by TCM were studied. 0.5 g Chinese medicine composition prepared by the method of EXAMPLE 1 (Coded as QSYQ) was administrated half an hour after meal, 3 times per day.
# They included the overall survival time, angina pectoris score, TCM symptom score and life quality score, where angina pectoris score, TCM symptom score and life quality score were evaluated at randomization, in 1st, 3rd, 6th, 9th, 12th month after treatment and 18th month after follow-up.
# The analysis method referred to the angina pectoris score.
# [1] = 9 months after treatment-baseline
# [2] = 12 months after treatment-baseline
compound,measurement,setting,value
"CC(=O)Oc1ccccc1C(=O)O [Control group, aspirine]","change of pale complexion −1, number of patients",[1],59
same,"change of pale complexion −1, percent of patients",[1],(3.45%)
same,"change of palpitation 0, number of patients",[1],948
same,"change of palpitation 0, percent of patients",[1],(55.44%)
same,"change of palpitation 1, number of patients",[1],557
same,"change of palpitation 1, percent of patients",[1],(32.57%)
same,"change of palpitation 2, number of patients",[1],76
same,"change of palpitation 2, percent of patients",[1],(4.44%)
same,"change of palpitation 3, number of patients",[1],7
same,"change of palpitation 3, percent of patients",[1],(0.41%)
same,"change of palpitation −1, percent of patients",[1],(6.84%)
same,"change of palpitation −2, number of patients",[1],5
same,"change of palpitation −2, percent of patients",[1],(0.29%)
same,"change of palpitation −3, number of patients",[1],0
same,"change of palpitation −3, percent of patients",[1],(0.00%)
same,"change of short breath 0, % of patients",[1],(59.06%)
same,"change of short breath 0, number of patients",[1],1010
same,"change of short breath 2, % of patients",[1],(30.35%)
same,"change of short breath 2, number of patients",[1],519
same,"change of short breath 4, % of patients",[1],(3.57%)
same,"change of short breath 4, number of patients",[1],61
same,"change of short breath 6, % of patients",[1],(0.47%)
same,"change of short breath 6, number of patients",[1],8
same,"change of short breath −2, % of patients",[1],(6.26%)
same,"change of short breath −2, number of patients",[1],107
same,"change of short breath −4, % of patients",[1],(0.23%)
same,"change of short breath −4, number of patients",[1],4
same,"change of short breath −6, % of patients",[1],(0.06%)
same,"change of short breath −6, number of patients",[1],1
same,"change of spontaneous perspiration 0, number of patients",[1],910
same,"change of spontaneous perspiration 0, percent of patients",[1],(53.25%)
same,"change of spontaneous perspiration 1, number of patients",[1],491
same,"change of spontaneous perspiration 1, percent of patients",[1],(28.73%)
same,"change of spontaneous perspiration 2, number of patients",[1],113
same,"change of spontaneous perspiration 2, percent of patients",[1],(6.61%)
same,"change of spontaneous perspiration 3, number of patients",[1],31
same,"change of spontaneous perspiration 3, percent of patients",[1],(1.81%)
same,"change of spontaneous perspiration −1, number of patients",[1],154
same,"change of spontaneous perspiration −1, percent of patients",[1],(9.01%)
same,"change of spontaneous perspiration −2, number of patients",[1],10
same,"change of spontaneous perspiration −2, percent of patients",[1],(0.59%)
same,"change of spontaneous perspiration −3, number of patients",[1],0
same,"change of spontaneous perspiration −3, percent of patients",[1],(0.00%)
same,"change of total score of TCM symptom, Max",[1],15.00
same,"change of total score of TCM symptom, Md",[1],−4.00
same,"change of total score of TCM symptom, Mean",[1],−4.52
same,"change of total score of TCM symptom, Min",[1],−33.00
same,"change of short breath 0, number of patients",12 months after treatment,955
same,"distribution of total score of TCM symptom: Medium, number of patients",12 months after treatment,235
same,"distribution of total score of TCM symptom: Medium, percentage of patients",12 months after treatment,(16.31%)
same,"distribution of total score of TCM symptom: Mild, number of patients",12 months after treatment,1205
same,"distribution of total score of TCM symptom: Mild, percentage of patients",12 months after treatment,(83.62%)
same,"distribution of total score of TCM symptom: Severe, number of patients",12 months after treatment,1
same,"distribution of total score of TCM symptom: Severe, percentage of patients",12 months after treatment,(0.07%)
same,"fatigue score 0, % of patients",12 months after treatment,(36.67%)
same,"fatigue score 0, number of patients",12 months after treatment,630
same,"fatigue score 2, % of patients",12 months after treatment,(58.21%)
same,"fatigue score 2, number of patients",12 months after treatment,1000
same,"fatigue score 4, % of patients",12 months after treatment,(4.42%)
same,"fatigue score 4, number of patients",12 months after treatment,76
same,"fatigue score 6, % of patients",12 months after treatment,(0.70%)
same,"fatigue score 6, number of patients",12 months after treatment,12
same,"pale complexion score 0, number of patients",12 months after treatment,1011
same,"pale complexion score 0, percent of patients",12 months after treatment,(58.85%)
same,"pale complexion score 1, number of patients",12 months after treatment,590
same,"pale complexion score 1, percent of patients",12 months after treatment,(34.34%)
same,"pale complexion score 2, number of patients",12 months after treatment,104
same,"pale complexion score 2, percent of patients",12 months after treatment,(6.05%)
same,"pale complexion score 3, number of patients",12 months after treatment,13
same,"pale complexion score 3, percent of patients",12 months after treatment,(0.76%)
same,"palpitation score 0, number of patients",12 months after treatment,669
same,"palpitation score 0, percent of patients",12 months after treatment,(38.94%)
same,"palpitation score 2, number of patients",12 months after treatment,892
same,"palpitation score 2, percent of patients",12 months after treatment,(51.92%)
same,"palpitation score 4, number of patients",12 months after treatment,138
same,"palpitation score 4, percent of patients",12 months after treatment,(8.03%)
same,"palpitation score 6, number of patients",12 months after treatment,19
same,"palpitation score 6, percent of patients",12 months after treatment,(1.11%)
same,"short breath score 0, % of patients",12 months after treatment,(31.72%)
same,"short breath score 0, number of patients",12 months after treatment,545
same,"short breath score 3, % of patients",12 months after treatment,(57.92%)
same,"short breath score 3, number of patients",12 months after treatment,995
same,"short breath score 6, % of patients",12 months after treatment,(10.07%)
same,"short breath score 6, number of patients",12 months after treatment,173
same,"short breath score 9, % of patients",12 months after treatment,(0.29%)
same,"short breath score 9, number of patients",12 months after treatment,5
same,"spontaneous perspiration score 0, number of patients",12 months after treatment,845
same,"spontaneous perspiration score 0, percent of patients",12 months after treatment,(49.19%)
same,"spontaneous perspiration score 1, number of patients",12 months after treatment,804
same,"spontaneous perspiration score 1, percent of patients",12 months after treatment,(46.80%)
same,"spontaneous perspiration score 2, number of patients",12 months after treatment,58
same,"spontaneous perspiration score 2, percent of patients",12 months after treatment,(3.38%)
same,"spontaneous perspiration score 3, number of patients",12 months after treatment,11
same,"spontaneous perspiration score 3, percent of patients",12 months after treatment,(0.64%)
same,"total score of TCM symptom, Max",12 months after treatment,37.00
same,"total score of TCM symptom, Md",12 months after treatment,8.00
same,"total score of TCM symptom, Mean",12 months after treatment,8.41
same,"total score of TCM symptom, Min",12 months after treatment,0.00
same,"change of fatigue 0, % of patients",[2],(47.08%)
same,"change of fatigue 0, number of patients",[2],805
same,"change of fatigue 2, % of patients",[2],(35.38%)
same,"change of fatigue 2, number of patients",[2],605
same,"change of fatigue 4, % of patients",[2],(9.59%)
same,"change of fatigue 4, number of patients",[2],164
same,"change of fatigue 6, % of patients",[2],(1.46%)
same,"change of fatigue 6, number of patients",[2],25
same,"change of fatigue −2, % of patients",[2],(5.85%)
same,"change of fatigue −2, number of patients",[2],100
same,"change of fatigue −4, % of patients",[2],(0.64%)
same,"change of fatigue −4, number of patients",[2],11
same,"change of fatigue −6, % of patients",[2],(0.00%)
same,"change of fatigue −6, number of patients",[2],0
same,"change of pale complexion 0, number of patients",[2],1202
same,"change of pale complexion 0, percent of patients",[2],(70.37%)
same,"change of pale complexion 1, number of patients",[2],450
same,"change of pale complexion 1, percent of patients",[2],(26.35%)
same,"change of pale complexion −1, number of patients",[2],56
same,"change of pale complexion −1, percent of patients",[2],(3.28%)
same,"change of palpitation 0, number of patients",[2],882
same,"change of palpitation 0, percent of patients",[2],(51.58%)
same,"change of palpitation 1, number of patients",[2],602
same,"change of palpitation 1, percent of patients",[2],(35.20%)
same,"change of palpitation 2, number of patients",[2],102
same,"change of palpitation 2, percent of patients",[2],(5.96%)

# Source: patent publication US9211310B2, “Use of a Chinese medicine composition in preparing medicaments for treating secondary prevention of myocardial infarction” (TASLY PHARMACEUTICAL GROUP CO., LTD, priority 2010, dated 2015)
